Measured values: ChEMBL document CHEMBL4033736, “A new type of pharmacological chaperone for GM1-gangliosidosis related human lysosomal β-galactosidase: N-Substituted 5-amino-1-hydroxymethyl-cyclopentanetriols” (Bioorg Med Chem Lett, 2017)
Changes are numbered by the printed parent chain. Activity calls are given as the source filed them. The calls are words filed in the database; no cut-off is given here.

Legend:
[1] = Competitive inhibition of Fabrazyme (human recombinant alpha-galactosidase) using 4-nitrophenyl alpha-galactopyranoside as substrate pre-incubated for up to 5 mins before substrate addition
[2] = Competitive inhibition of Saccharomyces cerevisiae alpha-glucosidase using 4-nitrophenyl alpha-[…] as substrate pre-incubated for up to 5 mins before substrate addition
[3] = Competitive inhibition of Agrobacterium sp. beta-glucosidase using 4-nitrophenyl beta-D-galactopyranoside as substrate pre-incubated for up to 5 mins before substrate addition
[4] = Competitive inhibition of Escherichia coli lacZ beta-galactosidase using 4-nitrophenyl beta-D-galactopyranoside as substrate pre-incubated for up to 5 mins before substrate addition
[5] = target: T1, Lysosomal acid glucosylceramidase (Homo sapiens, UniProt P04062); test: Competitive inhibition of recombinant beta-glucocerebrosidase (unknown origin) using 4-nitrophenyl beta-D-[…] as substrate pre-incubated for up to 5 mins before substrate addition
T1 sequence (P04062 whole entry): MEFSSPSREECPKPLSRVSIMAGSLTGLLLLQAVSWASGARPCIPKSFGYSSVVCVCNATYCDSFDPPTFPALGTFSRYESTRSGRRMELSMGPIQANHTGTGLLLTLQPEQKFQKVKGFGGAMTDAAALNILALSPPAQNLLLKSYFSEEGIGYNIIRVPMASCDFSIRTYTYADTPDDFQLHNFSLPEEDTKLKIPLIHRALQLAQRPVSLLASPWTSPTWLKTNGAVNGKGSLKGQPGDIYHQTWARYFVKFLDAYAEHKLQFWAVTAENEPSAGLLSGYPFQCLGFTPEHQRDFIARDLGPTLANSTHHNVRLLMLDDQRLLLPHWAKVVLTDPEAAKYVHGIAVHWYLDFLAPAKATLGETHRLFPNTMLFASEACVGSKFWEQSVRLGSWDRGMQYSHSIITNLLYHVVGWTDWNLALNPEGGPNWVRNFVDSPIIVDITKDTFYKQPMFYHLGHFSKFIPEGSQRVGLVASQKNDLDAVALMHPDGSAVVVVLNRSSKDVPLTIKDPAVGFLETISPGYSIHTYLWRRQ

Beta-galactosidase [6] = target: T2, Beta-galactosidase (Bos taurus, UniProt Q58D55); test: Competitive inhibition of Bovine liver beta-galactosidase using 4-nitrophenyl beta-D-galactopyranoside as substrate pre-incubated for up to 5 mins before substrate addition
T2 sequence (Q58D55 whole entry): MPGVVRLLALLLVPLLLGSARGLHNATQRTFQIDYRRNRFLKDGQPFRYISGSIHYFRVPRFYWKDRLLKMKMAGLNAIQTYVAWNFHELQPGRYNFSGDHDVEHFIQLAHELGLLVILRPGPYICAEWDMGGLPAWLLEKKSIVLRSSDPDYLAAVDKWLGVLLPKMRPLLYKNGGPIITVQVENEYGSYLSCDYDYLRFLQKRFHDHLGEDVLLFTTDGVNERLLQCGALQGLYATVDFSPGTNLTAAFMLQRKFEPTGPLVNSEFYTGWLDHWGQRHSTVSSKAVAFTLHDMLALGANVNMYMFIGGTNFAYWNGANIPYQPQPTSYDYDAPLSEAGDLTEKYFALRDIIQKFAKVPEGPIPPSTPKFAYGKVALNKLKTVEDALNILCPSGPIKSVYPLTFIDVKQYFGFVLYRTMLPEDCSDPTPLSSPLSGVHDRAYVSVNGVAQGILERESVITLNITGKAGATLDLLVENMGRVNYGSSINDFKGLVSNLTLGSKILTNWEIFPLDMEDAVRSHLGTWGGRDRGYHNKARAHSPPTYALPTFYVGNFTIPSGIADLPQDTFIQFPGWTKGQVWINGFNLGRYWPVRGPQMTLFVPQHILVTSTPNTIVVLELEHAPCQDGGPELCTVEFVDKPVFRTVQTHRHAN

[7] = tested on: T3, Beta-galactosidase (Homo sapiens), P16278 [R201C]; test: Chaperone activity at beta-galactosidase R201C mutant isolated from human patient fibroblasts assessed as increase increase in thermal stability at 0.2 uM at 48 degC by thermal stability assay
T3 sequence (whole entry): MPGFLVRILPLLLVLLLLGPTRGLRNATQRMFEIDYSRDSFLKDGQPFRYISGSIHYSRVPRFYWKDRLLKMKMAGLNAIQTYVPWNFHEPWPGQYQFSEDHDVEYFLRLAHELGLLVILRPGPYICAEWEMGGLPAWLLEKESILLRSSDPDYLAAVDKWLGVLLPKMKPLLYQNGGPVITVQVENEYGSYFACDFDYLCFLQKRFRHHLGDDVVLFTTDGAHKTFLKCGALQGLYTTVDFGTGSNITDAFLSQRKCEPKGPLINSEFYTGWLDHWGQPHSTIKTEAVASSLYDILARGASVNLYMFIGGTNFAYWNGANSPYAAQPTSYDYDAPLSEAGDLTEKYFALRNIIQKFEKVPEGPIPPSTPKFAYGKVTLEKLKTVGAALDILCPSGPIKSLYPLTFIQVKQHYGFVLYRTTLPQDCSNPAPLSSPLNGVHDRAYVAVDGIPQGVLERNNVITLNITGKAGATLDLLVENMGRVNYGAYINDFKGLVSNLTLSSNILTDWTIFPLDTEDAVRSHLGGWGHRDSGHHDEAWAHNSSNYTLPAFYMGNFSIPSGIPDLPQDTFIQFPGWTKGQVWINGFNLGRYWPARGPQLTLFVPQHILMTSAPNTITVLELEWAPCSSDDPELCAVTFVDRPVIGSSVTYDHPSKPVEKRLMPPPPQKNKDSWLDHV

[8] = tested on: T3, Beta-galactosidase (Homo sapiens), P16278 [R201C]; test: Inhibition of beta-galactosidase R201C mutant isolated from human patient fibroblasts at 1 uM using 4-nitrophenyl beta-D-galactopyranoside as substrat
Beta-galactosidase [9] = target: T4, Beta-galactosidase (Homo sapiens, UniProt P16278); test: Competitive inhibition of human fibroblast lysosomal beta-galactosidase using 4-methylumbelliferyl-beta-D-galactopyranoside as substrate pre-incubated for up to 5 mins before substrate addition and measured after 30 mins
T4 sequence (P16278 whole entry): T3 sequence (whole entry) with C201R

[10] = tested on: T3, Beta-galactosidase (Homo sapiens), P16278 [R201C]; test: Chaperone activity at beta-galactosidase R201C mutant isolated from human patient fibroblasts assessed as increase in enzyme activity at 0.2 uM using 4-nitrophenyl beta-D-galactopyranoside as substrate relative to untreated control
[11] = tested on: T3, Beta-galactosidase (Homo sapiens), P16278 [R201C]; test: Chaperone activity at beta-galactosidase R201C mutant isolated from human patient fibroblasts assessed as increase in enzyme activity at 1 uM using 4-nitrophenyl beta-D-galactopyranoside as substrate relative to untreated control
[12] = tested on: T3, Beta-galactosidase (Homo sapiens), P16278 [R201C]; test: Chaperone activity at beta-galactosidase R201C mutant isolated from human patient fibroblasts assessed as increase in enzyme activity at 0.05 uM using 4-nitrophenyl beta-D-galactopyranoside as substrate relative to untreated control
[13] = tested on: T3, Beta-galactosidase (Homo sapiens), P16278 [R201C]; test: Chaperone activity at beta-galactosidase R201C mutant isolated from human patient fibroblasts assessed as increase in enzyme activity at 0.1 uM using 4-nitrophenyl beta-D-galactopyranoside as substrate relative to untreated control
[14] = tested on: T3, Beta-galactosidase (Homo sapiens), P16278 [R201C]; test: Chaperone activity at beta-galactosidase R201C mutant isolated from human patient fibroblasts assessed as increase in enzyme activity at 10 uM using 4-nitrophenyl beta-D-galactopyranoside as substrate relative to untreated control

Q: With `N#CCCCCCN[C@H]1[C@H](O)[C@@H](O)[C@@H](O)[C@H]1CO` as the molecule, how does the Ki [1] read?
A: The Ki was > 2000 µM.

Q: And the Ki [2]?
A: Its Ki is > 2000 µM.

Q: What about the Ki [3] of the same molecule?
A: Its Ki is 0.006 µM.

Q: And the Ki [4]?
A: Its Ki is 0.13 µM.

Q: And the Ki [5]?
A: Its Ki is 10.7 µM.

Q: And the Ki (Beta-galactosidase [6])?
A: The Ki was 0.11 µM.

Q: What does the source list for `NCCCCCCN[C@H]1[C@H](O)[C@@H](O)[C@@H](O)[C@H]1CO`?
A: Activity [7]: Active; inhibition [8]: Active; Ki [1]: > 2000 µM; Ki (Beta-galactosidase [9]): 9.2 µM; Ki [2]: > 2000 µM; fold change (FC) [10]: 5; Activity [11]: inactive; Ki [3]: 0.096 µM; Ki [4]: 16 µM; Ki [5]: 54.2 µM; fold change (FC) [12]: 4; Ki (Beta-galactosidase [6]): 31 µM

Q: What does the source list for `OC[C@@H]1[C@H](O)[C@H](O)[C@@H](O)[C@@H]1N1CCCC1`?
A: Ki [1]: > 2000 µM; Ki [2]: > 2000 µM; Ki [3]: 1.8 µM; Ki [4]: 33 µM; Ki [5]: 123 µM

Q: Which results are given for `CN(C)c1cccc2c(S(=O)(=O)NCCCCCCN[C@H]3[C@H](O)[C@@H](O)[C@@H](O)[C@H]3CO)cccc12`?
A: Ki [1]: 238 µM; Ki (Beta-galactosidase [9]): 0.29 µM; fold change (FC) [13]: 4; Ki [2]: > 2000 µM; fold change (FC) [11]: 6; Ki [3]: 0.0012 µM; Ki [4]: 0.01 µM; fold change (FC) [14]: 7.4; Ki [5]: 0.019 µM; Ki (Beta-galactosidase [6]): 0.0053 µM

Q: Which results are given for `CCCCCCCCN[C@@H]1C=C(CO)[C@H](O)[C@H](O)[C@H]1O`?
A: Ki [1]: > 2000 µM; Ki (Beta-galactosidase [9]): 0.51 µM; Ki [2]: > 2000 µM; Ki [3]: 7.7 µM; Ki [4]: 2.8 µM; Ki [5]: 83 µM

Q: With `N#CCCCN[C@H]1[C@H](O)[C@@H](O)[C@@H](O)[C@H]1CO` as the molecule, how does the Ki [1] read?
A: The Ki was > 2000 µM.

Q: What about the Ki [2] of the same molecule?
A: The Ki was > 2000 µM.

Q: And the Ki [3]?
A: The Ki was 0.0024 µM.

Q: And the Ki [4]?
A: Its Ki is 0.068 µM.

Q: What about the Ki [5] of the same molecule?
A: The Ki was 10.3 µM.

Q: And the Ki (Beta-galactosidase [6])?
A: Its Ki is 0.13 µM.

Q: For `CN(C)c1cccc2c(S(=O)(=O)NCCCCCCN(C)[C@H]3[C@H](O)[C@@H](O)[C@@H](O)[C@H]3CO)cccc12`, which Ki [1] is on record?
A: Its Ki is > 2000 µM.

Q: What about the Ki [2] of the same molecule?
A: The Ki was > 2000 µM.

Q: And the Ki [3]?
A: The Ki was 0.0028 µM.

Q: And the Ki [4]?
A: The Ki was 0.016 µM.

Q: And the Ki [5]?
A: The Ki was 0.001 µM.
